From paper PMC9310824 (Drug Delivery, 2022)

Key:
[1] = Drug release study in vitro by dialysis; format: physicochemical; settings: within 48 h, 37 °C
Protocol: The release of AS in vitro was determined by dialysis (Algul et al., [2018]). AS free drug dispersion solution (5 mg/mL, 1 mL) and AS-AL-mPEG-PLGA containing the same volume and concentration of AS were added into dialysis bags (MV 3500 D, 25 mm × 5 m) accordingly. The dialysis bags were placed in a conical flask after their two sections have been fastened together. Subsequently, 100 mL releasing media (pH 1.2 HCl solution, double distilled water and pH 7.4 PBS solution) were added consequently, before the conical flask was placed in a thermostatic water bath oscillator (37 ± 0.5 °C, 100 rpm) for in vitro release experiment. Samples were taken from the conical flask after 0.083, 0.25, 0.5, 0.75, 1, 1.5, 2, 3, 4, 6, 8, 10, 12, 24, 36, 48, 60, 72, 84 and 96 h of oscillation, respectively, while the same stable release medium with the same volume was added accordingly to maintain its dynamic balance. The samples were centrifugated at 10,000 rpm for 10 min before injection into HPLC for analysis according to the chromatographic conditions under the section of “HPLC analysis of AS.” Finally, the peak areas were recorded, and the concentrations of AS were substituted into the standard curve to calculate the cumulative drug release rate.

[2] = Pharmacokinetic study in rats; format: in vivo, SD rats; settings: oral
Protocol: Twelve SD rats (male, 200 ± 20 g) were maintained in the laboratory environment for 3 days before experiments. The rats were randomly divided into the free AS group and AS-AL-mPEG-PLGA group with 6 rats in each group. The rats have fasted from food for 12 h with free access to water before the experiment. Rats in the two groups were orally given free AS (dispersed CMC-Na solution) and AS-AL-mPEG-PLGA of equivalent AS dose (150 mg/kg). At each point of 0.25, 0.5, 0.75, 1, 1.5, 2, 2.5, 3, 4, 6, 8, 10, 12 and 24 h after administration, blood samples (0.4 mL) were collected from the orbit of rats with capillaries. The blood samples were placed in a 1.5 mL EP tube filled with heparin sodium and centrifuged at 3700 rpm for 10 min. Aliquot (200 μL) of supernatant was collected into another clean 1.5 mL EP tube. Next, 600 μL of methanol was added into the tube before vortexing for 1 min. The mixture was centrifuged at 10,000 rpm for 10 min and the methanol layer was […] prior to drying with N2 at 37 °C. The residue was dissolved with 100 μL methanol coupled with vortexing for 1 min, and then 10 min of centrifugation at 10,000 rpm. Then, the supernatant was taken and analyzed with HPLC. The peak areas of AS and internal standard were recorded and substituted into the standard curve in vivo to subsequently calculate the concentration of AS.

[3] = system: rat osteoporosis model (OVX); test: Anti-osteoporotic effect in OVX rats: serum biochemical analysis (ELISA); format: in vivo
Protocol: (§1) Bilateral ovariectomy (OVX) was performed to establish the rat osteoporosis model according to earlier work (Shakir et al., [2015]). Next, 24 rats were randomly divided into four groups (n = 6): sham operation group (Sham), OVX model group (OVX), free AS group (AS) and AS-AL-mPEG-PLGA group. Rats were anesthetized by intraperitoneal injection of pentobarbital sodium (1%, 8 mL/kg). Later, the rats were placed on a sterile table and fixed prone, while the surgical site on the back was shaved and sterilized with iodophor. Double incisions were taken under the costal back to separate the muscular layer and retroperitoneum into the abdominal cavity. The ovaries were found in the adipose tissue below the kidneys and were removed with bent tweezers and ligated before complete excision of the bilateral ovaries. After confirming that there was no active bleeding, the muscle layer and skin were interlocked, whilst the wound was disinfected. In the Sham group, only a small amount of adipose tissue around the ovaries was removed without damage to both ovaries. The operation was done gently while attention was paid to the sterility principle. After the operation, the rats were kept warm, while drug administration began 4 weeks afterwards at once a day for 12 weeks. Rats in the groups Sham and OVX were given 2 mL of normal saline via the oral route. Rats in the AS and AS-AL-mPEG-PLGA groups orally received 2 mL of free AS (dispersed in CMC-Na solution, 150 mg/kg) and AS-AL-mPEG-PLGA solution (150 mg/kg) every day, respectively.
All the rats were sacrificed and blood samples were collected. The serum levels of TRACP-5b, BGP, IL-6 and CTX-1 were determined by enzyme-linked immunosorbent assay (ELISA) to evaluate bone absorption and bone formation. The operation steps were strictly in accordance with the instructions of the kits. Finally, the absorbances of the samples were measured at 450 nm with the microplate reader, so as to calculate the concentration of each biochemical index in the serum.

[4] = system: rat osteoporosis model (OVX); test: Anti-osteoporotic effect in OVX rats: micro-CT analysis of femur; format: in vivo
Protocol: as §1
In order to evaluate the bone microstructure, the right femur was analyzed with high-resolution micro-CT using the micro-CT imaging system (Siemens, Inveon) according to the method described in the literature (Zhang et al., [2012]). The femur was fixed in the centrifuge tube by the long axis, while the surrounding was filled with gauze. Quantitative parameters of bone microstructure including percent bone volume (BV/TV), trabecular thickness (Tb.Th), trabecular number (Tb.N), trabecular separation (Tb.Sp), structural model index (SMI) and bone mineral density (BMD) were measured. All the digital data, 2 D and 3 D images were provided by the built-in software of micro-CT (Siemens, Inveon).

[5] = parameters: method as in Zhang et al., 2007; settings: after p.o. administration, ref Zhang et al., 2007; cited from earlier work
[6] = Detection of AS content in rats' bones; format: in vivo; settings: femur homogenate (1 g/mL saline) after the pharmacokinetic experiment, oral 150 mg/kg
Protocol: After the pharmacokinetic experiment, the rats were sacrificed and the femurs were homogenized with normal saline at a ratio of 1 g/mL. We then centrifugated the homogenized samples at 10,000 rpm for 10 min, before treatment of the supernatant (200 μL) via the same method as described in the section “Pharmacokinetic study in rats.” Finally, the samples were analyzed via the HPLC method to detect the AS concentration in rats’ bones.

[7] = system: rat osteoporosis model (OVX); test: Anti-osteoporotic effect in OVX rats: histological analysis (H&E) of femur; format: in vivo; settings: compared with the OVX group
Protocol: as §1, with “Rats in the AS and AS-AL-mPEG-PLGA groups orally received 2 mL of free AS (dispersed in CMC-Na solution, 150 mg/kg) and AS-AL-mPEG-PLGA solution (150 mg/kg) every day, respectively.” left out

[8] = parameters: method as in Yao et al., 2014; settings: PBS, within 24 h, ref Yao et al., 2014; cited from earlier work
[9] = oral 150 mg/kg daily, 12 weeks, P < .01

Compound: Astragaloside
- cumulative release rate ([1]; double distilled water): 93.85%
- cumulative release rate ([1]; pH 1.2 HCl solution): 96.87%
- cumulative release rate ([1]; pH 7.4 PBS solution): 95.95%
- mean plasma concentration at 1440 min ([2]; 150 mg/kg): 260 ± 50 ng/mL
- AUC0-t ([2]; AS dose 150 mg/kg): 1520.45 ± 45.19 µg·min/mL
- Cmax ([2]; AS dose 150 mg/kg): 5250 ± 500 ng/mL
- MRT ([2]; AS dose 150 mg/kg): 5.55 ± 0.143 h
- T1/2 ([2]; AS dose 150 mg/kg): 6.5952 ± 0.4407 h
- Tmax ([2]; AS dose 150 mg/kg): 2 ± 0 h
- expression level of IL-6 compared with OVX group [3, 9]: decreased significantly
- serum level of BGP compared with OVX group [3, 9]: significantly decreased
- serum level of CTX-1 compared with OVX group [3, 9]: significantly decreased
- serum level of TRACP-5b compared with OVX group [3, 9]: significantly decreased
- serum level of IL-6 ([3]; oral 150 mg/kg once a day for 12 weeks): 53.88 ± 4.23 pg/mL
- bone microstructure in 2D and 3D micro-CT images ([4]; compared with OVX group): significantly reduce osteoporosis and increase dense bone mass
- BMD (bone mineral density) ([4]; oral 150 mg/kg daily, 12 weeks): notably increased
- BV/TV (percent bone volume) ([4]; oral 150 mg/kg daily, 12 weeks): notably increased
- SMI (structural model index) ([4]; oral 150 mg/kg daily, 12 weeks): substantially reduced
- Tb.N (trabecular number) ([4]; oral 150 mg/kg daily, 12 weeks): notably increased
- Tb.Sp (trabecular separation) ([4]; oral 150 mg/kg daily, 12 weeks): substantially reduced
- Tb.Th (trabecular thickness) ([4]; oral 150 mg/kg daily, 12 weeks): notably increased
- absolute bioavailability [5]: 7.4%
- concentration of AS in bone [6]: 1950 ± 170 ng/mL
- adipose tissue in femur, H&E staining [7]: relatively less adipose tissue

Compound: CN(C)c1ccc(O)c2c1C[C@H]1C[C@H]3[C@H](N(C)C)C(O)=C(C(N)=O)C(=O)[C@@]3(O)C(O)=C1C2=O [free minocycline, minocycline]
- minocycline released [8]: ~100%
